# Measured values as given in PMC3440348, “Identification of Novel Human Dipeptidyl Peptidase-IV Inhibitors of Natural Origin (Part I): Virtual Screening and Activity Assays” (PLoS ONE, 2012).
# Target: T1, DPP-IV (dipeptidyl peptidase-IV) (Homo sapiens, UniProt P27487)
# T1 construct: gene DPP4; commercial recombinant human DPP-IV
# Assay: fluorimetric DPP-IV inhibition assay (H-Gly-Pro-AMC), dose-response
# Format: biochemical
# T1 sequence (P27487 39-766): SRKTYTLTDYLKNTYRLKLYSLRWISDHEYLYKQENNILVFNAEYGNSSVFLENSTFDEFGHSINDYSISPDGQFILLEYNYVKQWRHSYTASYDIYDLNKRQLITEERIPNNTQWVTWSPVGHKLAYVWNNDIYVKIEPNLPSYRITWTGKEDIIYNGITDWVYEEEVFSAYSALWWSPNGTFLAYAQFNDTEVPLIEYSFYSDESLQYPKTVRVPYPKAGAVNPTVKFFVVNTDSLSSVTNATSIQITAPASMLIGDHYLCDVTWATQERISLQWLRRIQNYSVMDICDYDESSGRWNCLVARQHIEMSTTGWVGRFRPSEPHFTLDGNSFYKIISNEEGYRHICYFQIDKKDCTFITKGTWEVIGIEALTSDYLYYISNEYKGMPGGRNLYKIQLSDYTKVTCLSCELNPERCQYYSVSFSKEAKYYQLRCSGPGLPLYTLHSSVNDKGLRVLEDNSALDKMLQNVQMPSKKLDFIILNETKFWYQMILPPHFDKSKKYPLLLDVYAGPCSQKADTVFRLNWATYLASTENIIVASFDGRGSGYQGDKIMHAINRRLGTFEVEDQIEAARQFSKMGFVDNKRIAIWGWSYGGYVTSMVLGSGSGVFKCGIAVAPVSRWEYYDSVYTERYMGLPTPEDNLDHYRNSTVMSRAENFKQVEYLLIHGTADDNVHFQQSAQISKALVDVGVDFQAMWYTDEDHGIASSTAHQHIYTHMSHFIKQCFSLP
compound,measurement,value
"CCCCN(C)Cc1c(O)ccc2c(-c3cc4ccccc4oc3=O)cc(=O)oc12 [C5, ZINC02132035]",IC50,61.6 µM
